Assay results reported in patent US10668047B2, “Aziridine containing DNA alkylating agents” (priority 2015, dated 2020).
Read-outs that look alike come from different tables or passages of the source.

Tested on: H460 non-cell lung cancer human tumor cell line
Experiment: In vitro human tumor cell line cytotoxicity (proliferation) assay, AlamarBlue
Assay type: cell-based
How it was run: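 H460 cells (4×10^3/well) attached for 24 h, then were exposed to compound for 2 hours at 37° C. before washout and 70 hrs further growth in fresh medium. Viable cells were measured by AlamarBlue, and IC50 (50% growth inhibition) was determined relative to media-only control.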

[1] = Homo sapiens, NCI-H460, H460 cells, under air, 2 hrs exposure, wash, then 70 hrs growth, read-out: IC50 (air)
[2] = Homo sapiens, NCI-H460, H460 cells, under nitrogen, 2 hrs exposure, wash, then 70 hrs growth, read-out: IC50 (N2)
[3] = H460 cells, under air, 2 hrs exposure, wash, then 70 hrs growth, read-out: IC50 (air)
[4] = H460 cells, under nitrogen, 2 hrs exposure, wash, then 70 hrs growth, read-out: IC50 (N2)

Row | SMILES | IC50 [1] [µM] | IC50 [2] [µM] | also measured
1 | CC(OP(=O)(N1CC1)N1CC1)c1ccc([N+](=O)[O-])c(-c2ccco2)c1 (stereo not shown) [compound 2782] | 41 | 1.7 | –
2 | CC(OP(=O)(N1CC1)N1CC1)c1ccc([N+](=O)[O-])c(-c2cccs2)c1 (stereo not shown) [compound 2783] | 51 | 1.7 | –
3 | CC(OP(=O)(N1CC1)N1CC1)c1ccc([N+](=O)[O-])c(-c2ccccc2)c1 (stereo not shown) [compound 2785] | 47 | 1.6 | –
4 | CC(OP(=O)(N1CC1)N1CC1)c1ccc([N+](=O)[O-])c(-c2ccccc2F)c1 (stereo not shown) [compound 2786] | 69 | 2.5 | –
5 | CC(OP(=O)(N1CC1)N1CC1)c1cc(-n2nnc3ccccc32)c([N+](=O)[O-])cc1F (stereo not shown) [compound 2787] | 2.3 | 0.02 | –
6 | CC(OP(=O)(N1CC1)N1CC1)c1ccc([N+](=O)[O-])c(-c2ccc(F)cc2)c1 (stereo not shown) [compound 2788] | 22 | 1.3 | –
7 | Cc1ccc(-c2cc(C(C)OP(=O)(N3CC3)N3CC3)ccc2[N+](=O)[O-])cc1 (stereo not shown) [compound 2789] | 36 | 2.4 | –
8 | CC(OP(=O)(N1CC1)N1CC1)c1ccc([N+](=O)[O-])c(-c2ccc(-c3ccccc3)cc2)c1 (stereo not shown) [compound 2790] | 4 | 1.8 | –
9 | C#Cc1cc(C(C)OP(=O)(N2CC2)N2CC2)ccc1[N+](=O)[O-] (stereo not shown) [compound 2792] | 3.7 | 0.2 | –
10 | CC(OP(=O)(N1CC1)N1CC1)c1ccc([N+](=O)[O-])c(-c2cn(COC(=O)C(C)(C)C)nn2)c1 (stereo not shown) [compound 2793] | 4 | 0.4 | –
11 | CC(OP(=O)(N1CC1)N1CC1)c1ccc([N+](=O)[O-])c(-n2c(N)nc3ccccc32)c1 (stereo not shown) [compound 2798] | 32 | 0.6 | –
12 | CC(OP(=O)(N1CC1)N1CC1)c1ccc([N+](=O)[O-])c(-c2ccccc2C(F)(F)F)c1 (stereo not shown) [compound 2799] | 37 | 2.3 | –
13 | Cc1ccccc1-c1cc(C(C)OP(=O)(N2CC2)N2CC2)ccc1[N+](=O)[O-] (stereo not shown) [compound 2800] | 30 | 1.3 | –
14 | CC(OP(=O)(N1CC1)N1CC1)c1ccc([N+](=O)[O-])c(-c2cccc(C#N)c2)c1 (stereo not shown) [compound 2801] | 47 | 2.2 | –
15 | CC(OP(=O)(N1CC1)N1CC1)c1ccc([N+](=O)[O-])c(-c2cccc(C(F)(F)F)c2)c1 (stereo not shown) [compound 2802] | 22 | 2.8 | –
16 | CC(OP(=O)(N1CC1)N1CC1)c1ccc([N+](=O)[O-])c(-n2ccnc2)c1 (stereo not shown) [compound 2803] | – | – | IC50 [3]: 150 µM; IC50 [4]: 0.3 µM
17 | CC(OP(=O)(N1CC1)N1CC1)c1ccc([N+](=O)[O-])c(-n2ccnc2)c1 (stereo not shown) [compound 2804] | – | – | IC50 [3]: 310 µM; IC50 [4]: 0.6 µM
18 | CC(OP(=O)(N1CC1)N1CC1)c1ccc([N+](=O)[O-])c(-c2cn(-c3ccc(F)cc3)nn2)c1 (stereo not shown) [compound 2806] | 5.4 | 0.3 | –
19 | CC(OP(=O)(N1CC1)N1CC1)c1ccc([N+](=O)[O-])c(-n2ccnc2Br)c1 (stereo not shown) [compound 2807] | 13 | 0.03 | –
20 | CC(OP(=O)(N1CC1)N1CC1)c1ccc([N+](=O)[O-])c(C[N+](=O)[O-])c1 (stereo not shown) [compound 2811] | – | – | IC50 (Homo sapiens, NCI-H460, read-out: IC50 (N2), H460 cells, under nitrogen, 2 hrs exposure, wash, then 70 hrs growth): 0.1 µM; IC50 (Homo sapiens, NCI-H460, read-out: IC50 (air), H460 cells, under air, 2 hrs exposure, wash, then 70 hrs growth): 8.4 µM
21 | CC(OP(=O)(N1CC1)N1CC1)c1ccc([N+](=O)[O-])c(C(F)F)c1 (stereo not shown) [compound 2821] | 5 | 0.05 | –
22 | CC(OP(=O)(N1CC1)N1CC1)c1ccc([N+](=O)[O-])c(CF)c1 (stereo not shown) [compound 2822] | 3.1 | 0.3 | –
23 | CC(OP(=O)(N1CC1)N1CC1)c1ccc([N+](=O)[O-])c2ccccc12 (stereo not shown) [compound 2824] | 1.7 | 0.02 | –
